Measurements from a melting point compilation (Tetko et al.; mined from patent text by program, amines drawn as free bases though some values may be those of a salt).

melting point [°C]	Structure (SMILES)
98 to 100	Cn1cc(Cc2ccccc2)c(=O)c(-c2cccc(C(F)(F)F)c2)c1
226 to 229	O=C(CCC(=O)Sc1ccc(O)cc1)Sc1ccc(O)cc1
114 to 117	CCn1cc(C2(c3ccc(F)c(-c4cccnc4F)c3)N=C(N)N(C)C2=O)cc1C(=O)OC (centres undefined)
156 to 157	COc1ccc(CCNC(=O)CCCCC(=O)NCCc2cccc3ccccc23)cc1OC
78 to 81	CCc1c(-c2ccc(OCc3ccccc3)cc2)c2ccc3c(OC)ccc1n32
67 to 69	CCOC(=S)c1ccc2scc(C)c2c1
150 to 151	CC(C)COC(=O)Nc1ccc(C2(O)CCSCC2)cc1
140 to 142	COC(=O)c1ccc2c(c1)OCCC2NC(=O)OCc1ccccc1 (centres undefined)
126 to 129	COc1cc2c(ccn2S(C)(=O)=O)cc1Br
212 to 217	O=S1(=O)c2ccccc2N(c2ccccc2)c2ccccc21
142 to 143	COc1cc(Nc2c(C#N)cnc3cc(/C=C/CCN4CCN(C)CC4)c(OC)cc23)c(Cl)cc1Cl
170 to 171	COc1ccc(C2=C(c3ccc(S(N)(=O)=O)cc3)CCC2)cc1F
36 to 37.5	CCOC(=O)c1c(SCC)cc(C(F)(F)F)nc1C(F)(F)F
244 to 246	Cc1cccc(COc2cccc3c2CN(C2CCC(=O)NC2=O)C3=O)c1 (centres undefined)
92 to 95	CCCCCCCCCCCCCCCCS(=O)(=O)Nc1cccc(C(=O)CBr)c1
143 to 150	CNC(=O)/C=C/c1ccc(C(=O)NCC(=O)N(C)c2ccc(Cl)c(COc3cccc4ccc(C)nc34)c2Cl)cc1
> 300	Cc1cc(F)cc2[nH]c(=O)c(=O)[nH]c12
126 to 128	Cc1ccc(CC(N)C(O)C(N)Cc2ccccc2)cc1 (centres undefined)
126 to 128	COc1c(O)ccc(C(=O)c2ccccc2)c1F
190	Cc1nc2c(c(=O)[nH]1)-c1cc(S(=O)(=O)Nc3ccc(C(N)=O)cc3)ccc1CC2
189 to 190	Clc1ccc(Nc2nnc(-c3cccc(Oc4ccc(Cl)c(Cl)c4)c3)s2)cc1Cl
93 to 95	Cc1ccccc1C1CCN(C(=O)CCC(=O)c2ccc3c(c2)CCNCC3)CC1
188 to 190	CC(C)(C)C(F)(F)c1ccc(C[C@H]2NC(=O)O[C@H]2c2cccc(Cl)c2)cc1 (racemic)
166 to 168	CCOCc1nc2c(N)nc3ccccc3c2n1CC1(N)CCCCC1

melting point [°C]	Structure (SMILES)
210 to 212	CC(C)(C)c1ccc(-c2c(Cl)c(CN3C(=O)CCC3=O)nc3sc4c(c23)CCNC4)cc1
63 to 64	C=CCOc1ccc(C(C)=O)c(NC(C)=O)c1
248 to 249	N#CCCNC(=O)c1n[nH]cc1NC(=O)c1cccc(C#N)c1
111	COc1ccc(-c2nn(-c3ccsc3)c3c(Cl)cccc23)cc1
50	Cc1ccnc(-c2ccc(C(F)(F)F)cc2)n1
211 to 212	Oc1ccccc1-c1ncc2ncc(Cl)cc2n1
256 to 259	COc1ccc2[nH]c(C)c(/C=C/C(=O)c3ccncc3)c2c1
162	O=C(NC1CCC(c2cc(Nc3cccc(C(F)(F)F)c3)n[nH]2)C1)c1ccccn1 (centres undefined)
166 to 168	O=C1COCC2=C1C(c1ccc(F)c(Br)c1)C1=C(COC1=O)N2 (centres undefined)
69 to 70	N#Cc1ccccc1-c1ccc(CN=[N+]=[N-])cc1
102 to 103	CC(C)(C)OC(=O)N1CCC(Oc2ccccc2C(C)(C)C)CC1
175	COc1ccc(CC(=O)Nc2cccc3nc(N[C@@H]4CCc5ccccc54)ccc23)cc1
174	CNC(=O)c1cccc(NC(=O)COc2ccc3ccccc3c2)c1
75.5 to 76	CSC(=C[N+](=O)[O-])NCCCCc1nccs1
89 to 90	CCOC(=O)C(NC(C)=O)(C(=O)OCC)c1ccc(Cl)cn1
231	O=C(NC(=O)c1c(F)cccc1F)Nc1cc(F)c(C(F)(F)F)c(F)c1
122 to 125	Cc1ccn(-c2ccc(C(=O)N3Cc4cccnc4Nc4ccccc43)c(F)c2)n1
75	Cc1ccccc1C1(n2ccnc2)c2ccccc2-c2sccc21 (centres undefined)
235 to 236	CCC(=O)Oc1c(OC)cc(C=CC(=O)Nc2cnc3c(C)cc(C)cc3c2-c2ccccc2Cl)cc1OC
170	O=S(CC(O)CCl)c1ncc(Cl)cn1 (centres undefined)
210 to 212	O=C(O)c1cc(Br)c(O)cc1O
287 to 289	O=c1[nH]cnc2nn(C3CCCCC3)cc12
111 to 113	N#CCc1ccc(NC(=O)CNc2ccccc2F)cc1
107 to 109	OC(Cc1ccccc1)Cc1ccccc1

melting point [°C]	Structure (SMILES)
195 to 196	CNCCCc1cc(C(=O)Nc2ccc(-c3ccc(C(C)=O)cc3)cc2)ccc1OC
137	N#CC(=NOCCn1cncn1)C(N)=O
80 to 90	CC1(O)CCC(CN2CCC(=C3c4ccc(F)cc4Sc4ccc(C(F)(F)F)cc43)CC2)CC1 (centres undefined)
103 to 105	COc1ccc(CCNC(=O)Cc2ccc(-c3ccccc3)cc2)cc1OC
199 to 200	Cc1c2n(c3ccccc13)C(=O)C(C(O)c1ncc[nH]1)CC2 (centres undefined)
> 300	CCc1[nH]n(C2CCCC2)c2nc(S(C)(=O)=O)nc(=O)c1-2
94	CCCCOc1cc(/C=C(\OCC)C(=O)O)ccc1OCCc1ccc(OS(=O)(=O)CCCC)c(OC)c1
205 to 206	O=C1NC(=O)C(Nc2ccc(Cl)c3ccccc23)S1 (centres undefined)
132 to 134	CC(C)(CC(=O)C(=O)Nc1ccc2c(c1)COC2=O)c1ccccc1
155 to 158	CC(=O)CC(=O)C=Cc1c[nH]c2ccccc12
121 to 122	COCN1C(C)=C(C(=O)O)C(c2ccccc2)C(C(=O)OCOC(=O)C(C)(C)C)=C1C (single isomer, unassigned; (+))
98 to 99	CC1=C(C)C2=NC(C)(C(C)C)C(=O)N2C1=O (centres undefined)
50 to 52	COC(=O)C(=O)c1ccc(OCCCCCCOc2ccccc2)cc1
214 to 216	O=C1CCCCC1Oc1ccc(-c2c(-c3ccccc3)nn3ccccc23)nn1 (centres undefined)
198 to 200	CCOc1nc(NCc2ccncc2)nc(Nc2ccc3cc[nH]c3c2)n1
188 to 190	CC(C)CC(NC(=O)C1CCCCC1NC(=O)OCc1ccccc1)C(N)=O (centres undefined)
59 to 59.9	COc1cc(Br)c(C(C)=O)cc1OC(C)C
141	O=c1ssc(N2CCc3ccccc3CC2)c1Cl
195 to 197	COc1cc(-c2cnc3ccccc3n2)cc([N+](=O)[O-])c1O
152 to 153	CC(=O)Oc1ccc(C2=NNC(=O)CC2C)cc1 (centres undefined)
91 to 97	N#CC(c1cccnc1)C1CCN(C(=O)CC(NC(=O)c2cccc(OCc3ccc4ccccc4n3)c2)c2ccccc2)CC1 (centres undefined)
204 to 206	CN1CCN(c2c(F)cc3c(=O)c(C(=O)O)cn(C4CSC4)c3c2F)CC1
120 to 125	O=C1C(=O)c2ccccc2C2=C1SCC1(CCN(C(=O)Cc3ccc(Cl)cc3)CC1)O2
232 to 235	CCCc1nc2c(N)nc3ccccc3c2n1O

melting point [°C]	Structure (SMILES)
132 to 135	CCOC(=O)CCc1cc(O)nn1C
123 to 127	COc1ccc(N2CCN(c3c(C)c(C)c4c(c3C)CC(C)(CN3CCC(=O)CC3)O4)CC2)cc1 (centres undefined)
111 to 112	Cc1c(NCC(C)(C)CNCC(O)COc2ccccc2)n(C)c(=O)n(C)c1=O (centres undefined)
153	CC1(c2ccccc2)OC(C(=O)O)Oc2ccccc21 (centres undefined)
222	O=C(N[C@H]1CC[C@H](CCN2CCN(c3nccc4c3CCO4)CC2)CC1)c1ccc(N2CCOCC2)nc1
88 to 90	CC(NC(=O)OC(C)(C)C)c1cc(F)c(N)c(I)c1 (centres undefined)
149 to 152	CCOC(=O)C(CC(C)C)NC(=O)C(Cc1ccccc1)NC(=O)CNC(=O)CNC(=O)C(Cc1ccc(OCc2ccccc2)cc1)NC(=O)OC(C)(C)C (centres undefined)
70 to 72	CCCC(c1ccc(C(=O)c2ccccc2)cc1OCc1ccc(Br)cc1)n1ccnc1 (centres undefined)
253 to 255	CCOc1cc(C(=O)NC2CC(C)(C)NC(C)(C)C2)ccc1-c1cc2cc(Cl)c(Cl)cc2[nH]1
82 to 85	O=C1C(=CO)COc2ccc(OCc3ccccc3)cc21
178 to 180	O=C(O)c1cccc(Oc2cccc(-c3nnc(N(Cc4ccc(C(F)(F)P(=O)(O)O)c(Cl)c4)c4ccc(Cl)c(Cl)c4)s3)c2)c1
136 to 137	COc1ccccc1C(=O)COc1cccc(NC(=O)c2ccccn2)c1
164 to 165	N#CCC(=O)Nc1ccc(S(=O)C(F)(F)F)cc1 (centres undefined)
128 to 129	CCCC(=O)OCOC(=O)C1=C(C)NC(C)=C(C(=O)OC)C1c1cccc(Cl)c1Cl (centres undefined)
138 to 139	CN(C=C(C#N)C(=O)Nc1ccccc1Cl)Cc1ccccc1Cl
168 to 170	NC(=O)C1=CCCc2cc(Sc3cccc(F)c3)ccc21
180	Cc1cccc(C)c1COc1cc(C(=O)N(C)C)cc2c1nc(C)n2C
280 to 281	CCC(=C(c1ccc(O)cc1)c1ccc(O)cc1)c1cccc(/C=C/C(=O)O)c1
245 to 247	O=c1cc(Cl)c2nc3ccc(F)cc3sc-2c1Cl
94 to 95	CCOC(=O)c1cn(-c2ccc(C(F)(F)F)cn2)nc1C(C)C
84 to 86	CCOc1ccc(CCN(C(=O)O)C(=O)[C@H](C)NC(C)=O)cc1OCC
64 to 66	CC(C)c1nc(CN(C)C(=O)N[C@H](C(=O)N[C@@H](Cc2ccccc2)C[C@H](O)[C@H](Cc2ccccc2)NC(=O)OCc2cnc(C(C)C)s2)C(C)C)cs1
120	O=C1CCC(CCO)(c2ccc(F)c(F)c2)CN1Cc1cc(C(F)(F)F)cc(C(F)(F)F)c1 (centres undefined)

Structure (SMILES)	melting point [°C]
C=CCC(C)(C)C(NC(=O)c1ccc(Cl)cc1)NC(=N[N+](=O)[O-])Nc1cccnc1 (centres undefined)	200 to 203
Cc1ccccc1C1CCN(CCc2c[nH]c3ccccc23)CC1	111 to 112
NC(=O)c1cc([N+](=O)[O-])c(N2CC2)c([N+](=O)[O-])c1	228 to 231
NC1=Nc2ccc(I)cc2C(c2ccccc2F)=NC1	219 to 221
